In patent US20100221763A1, “Specific Acceptors for Transferases to Saccharides and Method for Obtaining and Using Same” (Health Research, Inc, priority 2005, published 2010):
“And” between values parts separate entries of the source, which are not always exact repeats. Equal entries are not always repeated. Marks after values point to notes of the source that are not given here.

Tests used:
[1] = molecular target: T1, Rat recombinant α2,3(O)ST (Rattus norvegicus, UniProt Q11205); assay: Sialyltransferase assay with cloned α2,3(O)ST; assay type: biochemical; conditions: for Cloned Sialyltransferase Activities α2,3(O) ST %: Table III, compound 7.5 mM, 100% = 39200 CPM (3-O-MeGalβ1,4GlcNAcβ1,6(Galβ1,3)GalNAcα-O-Bn); for Sialyltransferase activity (%) Cloned α2,3(O)ST: Table I, acceptor 7.5 mM, 100% = 40560 CPM (3-O-MeGalβ1,4GlcNAcβ1,6(Galβ1,3)GalNAcα-O-Bn)
T1 construct: purchased Calbiochem
T1 sequence (Q11205 1-350): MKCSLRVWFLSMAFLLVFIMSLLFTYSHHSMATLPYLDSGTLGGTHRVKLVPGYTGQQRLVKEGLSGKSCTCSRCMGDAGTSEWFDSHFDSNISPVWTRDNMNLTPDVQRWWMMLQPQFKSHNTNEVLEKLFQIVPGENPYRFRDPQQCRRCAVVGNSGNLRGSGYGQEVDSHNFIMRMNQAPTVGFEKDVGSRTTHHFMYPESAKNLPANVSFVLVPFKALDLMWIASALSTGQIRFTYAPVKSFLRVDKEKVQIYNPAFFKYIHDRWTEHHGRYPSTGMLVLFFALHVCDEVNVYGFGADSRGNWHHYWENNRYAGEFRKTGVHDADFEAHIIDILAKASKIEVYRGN
Description: (§1) Rat recombinant α2,3(O)ST, α2,3(N)ST and α2,6(N)ST were purchased from Calbiochem and stored at either −20° C. or −70° C. as recommended by the supplier. […] 10 μl aliquots of the diluted enzymes were used in the assays run in duplicate.
(§2) The incubation mixtures run in duplicate contained 0.1M NaCacodylate buffer pH6.0, the acceptor (typically at 7.5 mM, or as indicated in some experiments), CMP-[9 ^3H] NeuAc (typically 0.2 μci; 20 μci/nmol or as indicated in some experiments) and the enzyme in a total volume of 20 μl. The control incubation mixtures contained everything except the acceptor. Incubation was carried out for 2 h at 37° C. The enzymatic transfer of [9-^3H] NeuAc to a typical acceptor was linear for 2 h and less than 30% CMP-[9-^3H] NeuAc was utilized. Chromatography, using either Dowex-1-Formate, Sep-Pak C18 or Biogel P2, was applied to separate radioactive product from un-reacted [9-^3H] NeuAc as described below.
(§3) The radioactive products from neutral allyl and methyl glycosides as well as non-glycosides were measured by fractionation on Dowex-1-Formate (Bio-Rad: AG-1X8; 200-400 mesh; format form) as follows: The incubation mixture was diluted with 1.0 ml water and passed through AG-1-formate column (1.0 ml bed volume in a Pasteur pipet which had been washed with 5 ml of 2M Formic acid followed by 10 ml water). The column was washed twice with 1.0 ml water after the entry of the sample and then eluted with 3.0 ml of 0.1M NaCl. The radioactivity present in water and 0.1M NaCl eluates were measured separately using 3a70 scintillation cocktail (Research Products International, Mount Prospect, Ill.) and a Beckman LS6500 scintillation counter. The CPM values were corrected by subtracting the blank CPM. Any radioactivity present in the water eluate (as noticed in the case of some methylglycosides) was added to the corresponding CPM value of 0.1M NaCl eluate. The radioactive products from sulfated and/or sialylated methylglycosides were also measured by the above procedure, only the elution of the AG-1-Formate column was continued further with 3.0 ml of 0.2M NaCl for achieving a complete elution of the radioactive product, a correction being made as before by subtracting the corresponding blank values.
(§4) The radioactive products from benzylglycosides and monosialylated benzylglycosides were measured by hydrophobic chromatography on Sep-Pak C18 cartridge (Waters, Milford, Mass.) and eluting the product with 3.0 ml methanol (30). The radioactivity was determined by liquid scintillation as above.
(§5) For such work, a Biogel P2 column (Fine Mesh; 1.0×116.0 cm) was used with 0.1M pyridine acetate pH5.4 as the eluent at room temperature. The effluent fractions were monitored for radioactivity and the first peak containing radioactivity was collected, lyophilized to dryness, dissolved in 200 μl of water and stored frozen at −20° C. for thin layer chromatography (TLC) and other experimentation.

LNCaP α2,3(O)ST = assay: Sialyltransferase assay with LNCaP cell extract; assay type: biochemical, human; conditions: for LNCaPα2,3(O)ST %: Table III, compound 7.5 mM, 100% = 30100 CPM (3-O-MeGalβ1,4GlcNAcβ1,6(Galβ1,3)GalNAcα-O-Bn)
Description: The prostate carcinoma cell line, LNCaP, was grown in RPMI 1640 supplemented with 10% fetal bovine serum and antibiotics (penicillin, streptomycin and amphotericin B) under conditions recommended by American Type Culture Collection (Manassas, Va.). The cells were homogenized with 0.1M Tris-Maleate pH6.3 containing 2% Triton X-100 using a Dounce all glass hand-operated homogenizer. The homogenate was centrifuged at 16,000 g for 1 h at 4° C. Protein concentration in supernatant was measured using the BCA assay (Pierce Biotech, Inc., Rockford, Ill.), with BSA as the standard. The supernatant was adjusted to 5 mg protein/ml by adding the necessary amount of extraction buffer and then stored frozen at −20° C. until use. 10 μl aliquot of this extract was used in assays run in duplicate.
as §2, §3, §4, §5

[2] = molecular target: T2, Rat recombinant α2,3(N)ST (Rattus norvegicus, UniProt Q02734); assay: Sialyltransferase assay with cloned α2,3(N)ST; assay type: biochemical; conditions: for Cloned Sialyltransferase Activities α2,3(N) ST %: Table III, compound 7.5 mM, 100% = 38140 CPM (Galβ1,4GlcNAcβ1,6(3-O-MeGalβ1,3)GalNAcα-O-Bn); for Sialyltransferase activity (%) Cloned α2,3(N)ST: Table I, acceptor 7.5 mM, 100% = 29520 CPM (Galβ1,4GlcNAcβ-O—Al)
T2 construct: purchased Calbiochem
T2 sequence (Q02734 29-374 limits assumed): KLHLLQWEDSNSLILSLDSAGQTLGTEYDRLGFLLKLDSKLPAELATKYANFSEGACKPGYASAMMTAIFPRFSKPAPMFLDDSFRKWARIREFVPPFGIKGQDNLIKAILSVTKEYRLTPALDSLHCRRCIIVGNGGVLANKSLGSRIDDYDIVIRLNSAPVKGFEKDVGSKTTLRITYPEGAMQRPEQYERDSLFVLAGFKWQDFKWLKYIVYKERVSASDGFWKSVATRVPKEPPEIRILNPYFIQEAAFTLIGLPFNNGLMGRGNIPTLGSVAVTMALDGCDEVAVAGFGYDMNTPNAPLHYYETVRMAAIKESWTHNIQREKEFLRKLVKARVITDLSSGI
Description: as §1, §2, §3, §4, §5

[3] = molecular target: T3, Rat recombinant α2,6(N)ST (Rattus norvegicus, UniProt P13721); assay: Sialyltransferase assay with cloned α2,6(N)ST; assay type: biochemical; conditions: for Cloned Sialyltransferase Activities α2,6(N)ST %: Table III, compound 7.5 mM, 100% = 30440 CPM (Galβ1,4GlcNAcβ1,6(3-O-MeGalβ1,3)GalNAcα-O-Bn); for Sialyltransferase activity (%) Cloned α2,6(N)ST: Table I, acceptor 7.5 mM, 100% = 43500 CPM (Galβ1,4GlcNAcβ-O—Al)
T3 construct: purchased Calbiochem
T3 sequence (P13721 1-403): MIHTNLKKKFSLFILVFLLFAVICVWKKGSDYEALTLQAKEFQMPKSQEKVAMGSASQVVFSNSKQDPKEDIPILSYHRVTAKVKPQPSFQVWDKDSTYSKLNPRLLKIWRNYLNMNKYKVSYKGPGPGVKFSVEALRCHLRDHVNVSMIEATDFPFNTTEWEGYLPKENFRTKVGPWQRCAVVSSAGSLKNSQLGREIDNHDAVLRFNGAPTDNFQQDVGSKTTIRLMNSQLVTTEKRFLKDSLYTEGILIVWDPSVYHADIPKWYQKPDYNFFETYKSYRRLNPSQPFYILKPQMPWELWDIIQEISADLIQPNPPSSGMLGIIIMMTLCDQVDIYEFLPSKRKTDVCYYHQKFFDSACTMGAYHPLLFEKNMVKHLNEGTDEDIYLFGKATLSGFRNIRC
Description: as §1, §2, §3, §4, §5

Row | Compound | Cloned Sialyltransferase Activities α2,3(O) ST % [1] | Cloned Sialyltransferase Activities α2,3(N) ST % [2] | Cloned Sialyltransferase Activities α2,6(N)ST % [3] | Sialyltransferase activity (%) Cloned α2,3(N)ST [2] | Sialyltransferase activity (%) Cloned α2,6(N)ST [3] | Sialyltransferase activity (%) Cloned α2,3(O)ST [1] | further results
1 | CC(=O)N[C@H]1[C@H](OC[C@H]2O[C@H](OCc3ccccc3)[C@H](NC(C)=O)[C@@H](O[C@@H]3O[C@H](CO)[C@H](O)[C@H](O)[C@H]3O)[C@H]2O)O[C@H](CO)[C@@H](O[C@@H]2O[C@H](CO)[C@H](O)[C@H](F)[C@H]2O)[C@@H]1O [3-FGalβ1,4GlcNAcβ1,6(Galβ1,3)GalNAcα-O-Bn] | 102.9^12% | 7.2% | 11.3% | – | – | – | LNCaPα2,3(O)ST % (LNCaP α2,3(O)ST): 91.5%
2 | CO[C@H]1O[C@H](CO[C@@H]2O[C@H](COS(=O)(=O)O)[C@@H](O[C@@H]3O[C@H](CO)[C@H](O)[C@H](O)[C@H]3O)[C@H](O[C@@H]3O[C@@H](C)[C@@H](O)[C@@H](O)[C@@H]3O)[C@H]2NC(C)=O)[C@H](O)[C@H](O[C@@H]2O[C@H](CO)[C@H](O)[C@H](O[C@]3(C(=O)O)C[C@H](O)[C@@H](NC(C)=O)[C@H]([C@H](O)[C@H](O)CO)O3)[C@H]2O)[C@H]1NC(C)=O [Galβ1,4(6-O-Sulfo)(Fucα1,3)GlcNAcβ1,6(NeuAcα2,3Galβ1,3)GalNAcα-O-Me] | – | – | – | 1.7% | 0% | – | –
3 | CO[C@H]1[C@H](O[C@H]2[C@H](O)[C@@H](CO)O[C@@H](OCc3ccccc3)[C@@H]2NC(C)=O)O[C@H](CO)[C@H](O)[C@@H]1O [2-O-MeGalβ1,3GlcNAcβ-O-Bn] | – | – | – | – | 0% | – | –
4 | CO[C@H]1O[C@H](CO[C@@H]2O[C@H](CO)[C@@H](O[C@@H]3O[C@H](CO)[C@H](O)[C@H](O)[C@H]3O)[C@H](O[C@@H]3O[C@@H](C)[C@@H](O)[C@@H](O)[C@@H]3O)[C@H]2NC(C)=O)[C@H](O)[C@H](O[C@@H]2O[C@H](CO)[C@H](O)[C@H](O)[C@H]2O)[C@H]1NC(C)=O [Galβ1,4(Fucα1,3)GlcNAcβ1,6(Galβ1,3)GalNAcα-O-Me] | – | – | – | 19.0% | 7.1% | 133.4% | –
5 | CO[C@H]1[C@@H](O)[C@@H](CO)O[C@@H](O[C@H]2[C@@H](O)[C@@H](CO[C@@H]3O[C@H](CO)[C@@H](O[C@@H]4O[C@H](CO)[C@H](O)[C@H](O)[C@H]4O)[C@H](O)[C@H]3NC(C)=O)O[C@H](OCc3ccccc3)[C@@H]2NC(C)=O)[C@@H]1O [Galβ1,4GlcNAcβ1,6(3-O-MeGalβ1,3)GalNAcα-O-Bn] | 49.6% | 100.0^b % | 100.0^a % | 95.3% | 97.7% | 49.6% | Sialyltransferase activity (%) LNCaP α2,3(O)ST (LNCaP α2,3(O)ST; Table I, acceptor 7.5 mM, 100% = 30930 CPM (3-O-MeGalβ1,4GlcNAcβ1,6(Galβ1,3)GalNAcα-O-Bn)): 3.0%; LNCaPα2,3(O)ST % (LNCaP α2,3(O)ST): 3.0%
6 | CO[C@H]1O[C@H](CO[C@@H]2O[C@H](COS(=O)(=O)O)[C@@H](O[C@@H]3O[C@H](CO)[C@H](O)[C@H](O)[C@H]3O)[C@H](O)[C@H]2NC(C)=O)[C@H](O)[C@H](O[C@@H]2O[C@H](CO)[C@H](O)[C@H](O[C@]3(C(=O)O)C[C@H](O)[C@@H](NC(C)=O)[C@H]([C@H](O)[C@H](O)CO)O3)[C@H]2O)[C@H]1NC(C)=O [Galβ1,4(6-O-Sulfo)GlcNAcβ1,6(NeuAcα2,3Galβ1,3)GalNAcα-O-Me] | – | – | – | 50.8% and 50.8^22% | 0.9% | – | Sialyltransferase activity (%) Cloned α2,3(N)ST ([2]; listed as Galβ1,4(6-O-Sulfo)GlcNAcβ1,6(NeuAcα2,3Galβ1,3)GalNAcα-): 50.8%
7 | CC(=O)N[C@H]1[C@H](OC[C@H]2O[C@H](OCc3ccccc3)[C@H](NC(C)=O)[C@@H](O[C@@H]3O[C@H](CO)[C@H](O)[C@H](O)[C@H]3O)[C@H]2O)O[C@H](CO)[C@@H](O[C@@H]2O[C@H](CO)[C@H](O)[C@H](O)[C@H]2O)[C@@H]1O [Galβ1,4GlcNAcβ1,6(Galβ1,3)GalNAcα-O-Bn] | – | – | – | 100.7% | 93.3% | 94.4^4% | α2,6(N)ST activity at varying acceptor concentration (FIG. 3A) ([3]; lowest concentration tested, 0.15 mM): considerable activity
8 | CO[C@H]1[C@@H](O)[C@@H](CO)O[C@@H](O[C@H]2[C@H](O)[C@@H](NC(C)=O)C(O)O[C@@H]2CO)[C@@H]1O (stereo partly shown) [3-O-MeGalβ1,4GlcNAc] | – | – | – | 1.4% | 8.7% | 3.6% | –
9 | CC(=O)N[C@H]1[C@H](OC[C@H]2O[C@H](OCc3ccccc3)[C@H](NC(C)=O)[C@@H](O[C@@H]3O[C@H](CO)[C@H](O)[C@H](O)[C@H]3O)[C@H]2O)O[C@H](CO)[C@@H](O[C@@H]2O[C@H](CO)[C@H](F)[C@H](O)[C@H]2O)[C@@H]1O [4-FGalβ1,4GlcNAcβ1,6(Galβ1,3)GalNAcα-O-Bn] | 102.1% | 7.9% | 2.7% | – | – | – | –
